Assay results published in patent US20150368195A1, “INDOLINE COMPOUNDS FOR TREATMENT AND/OR PREVENTION OF INFLAMMATION DISEASES” (Taipei Medical University, priority 2014, published 2015).
Like-named read-outs stand apart in the source and are kept apart here. Values belong to the molecule of their own block, whether it stands above or below them.

What was measured:
prostaglandin E2 (PGE2) [1] = assay: LPS-induced PGE2 production in RAW 264.7 macrophages; type: cell-based, Mouse; conditions: for IC50: Mus musculus, RAW264.7, LPS-stimulated RAW 264.7 macrophages, mean ± SEM, three experiments
Method: (§1) Furthermore, the anti-inflammatory effects of MPT0G009 was evaluated. […] These supernatants were then assayed for PGE2, NO, and IL-6.

interleukin-6 (IL-6) = assay: LPS-induced IL-6 production in RAW 264.7 macrophages; conditions: Mus musculus, RAW264.7, read-out: IC50 IL-6
[2] = system: tumor necrosis factor-α (TNF-α); assay: LPS-induced TNF-α production in RAW 264.7 macrophages; conditions: Mus musculus, RAW264.7, read-out: IC50 TNF-α
nitric oxide (NO) = assay: LPS-induced nitric oxide production in RAW 264.7 macrophages; type: cell-based, Mouse; conditions: for IC50: Mus musculus, RAW264.7, LPS-stimulated RAW 264.7 macrophages, mean ± SEM, three experiments
Method: Nitrite concentration was determined using a dilution of sodium nitrite as a standard.
as §1

[3] = system: adjuvant-induced arthritis; assay: adjuvant-induced arthritis (AIA) model; conditions: day 21, ELISA; MPT0G009 25 mg/kg, SAHA 200 mg/kg, indomethacin 1 mg/kg
Method: (FIG. 8B) Hind paw volumes in the indicated group of rats were measured using a digital plethysmometer on the indicated day after AIA induction. […] (FIG. 8D) Serum levels of interleukin (IL)-1β (left panel) and IL-6 (right panel) on day 21 as measured by enzyme-linked immunosorbent assay (ELISA). […] (FIG. 8F) The bone mineral density (BMD, in mg/mm^3) and the bone mineral content (BMC, in mg) values for the bone tissue of the tarsus were analyzed using CT Analysis Software.

[4] = system: carrageenan-induced hind paw edema; assay: carrageenan-induced hind paw edema; conditions: for carrageenan-induced hind paw edema: oral, 1 h before carrageenan, compound 9 25 mg/kg, SAHA 200 mg/kg, Indomethacin 5 mg/kg, measured 3 h after
Method: A 0.5% (w/v) suspension of carrageenan in normal saline was administered to male Wistar rats (7-weeks) by intradermal injection into the base of the right hind paw. […] A positive control group was included in which rats were pretreated with 5 mg/kg Indomethacin. […] The results are expressed as the mean±SEM, with n=5. *p<0.05 compared to the control group; #p<0.05 for the comparison of the indicated groups.
Animals were divided into four groups (n=5). 0.5% (w/v) suspension of carrageenan in normal saline was administered to male Wistar rats (7-weeks) by intradermal injection into the base of the right hind paw. […] A positive control group was included in which rats were pretreated with 5 mg/kg Indomethacin. Three hours after carrageenan administration, the thickness and volume of the right hind paw were measured by digital caliper and digital plethysmometer (Diagnostic & Research Instruments CO., Ltd, Taipei, Taiwan), respectively.

RA-FLS [5] = assay: SRB anti-proliferation assay; type: cell-based; conditions: 24 or 48 h incubation
From the text: (§2) (FIG. 1A) Structure of MPT0G009. […] Results in (FIGS. 1B-E) and (FIG. 1G) are means±SEM's for three independent experiments, *p<0.05 and **p<0.01 compared with no added inhibitor.

HIG-82 synoviocytes = assay: SRB anti-proliferation assay; type: cell-based; conditions: 24 or 48 h incubation
From the text: as §2

IL-6 = assay: IL-1β-induced IL-6 production by RA-FLS; type: cell-based; conditions: MPT0G009 0.1, 1, 10 μM; SAHA 0.3, 3, 30 μM; IL-1β 10 ng/mL 24 h
Method: as §2, §1

HDAC3 = assay: HDAC isoform protein levels, Western blot, RA-FLS; type: cell-based; conditions: 12 or 24 h; 1 μM MPT0G009 or 30 μM SAHA
Method: Then cells were harvested and cell lysates were prepared for Western blot analysis of the indicated proteins. (FIG. 5C) RA-FLS were incubated for 1 h with or without the proteasome inhibitor, MG132 (1 μM). […] Results shown are representative of three independent experiments.

p21 = p21 expression by flow cytometry or western blot in RA-FLS; type: cell-based; conditions: 24 h, 1 μM MPT0G009 or 3 μM SAHA
From the text: as §2

[6] = rats, SAHA (reference 30), cited from earlier work
[7] = system: inducible nitric oxide synthase (iNOS); assay: LPS-induced iNOS protein expression, Western blot, RAW264.7; type: cell-based, Mouse; conditions: RAW264.7, 0.1-10 μM, LPS 25 ng/mL 24 h
Method: (§3) Then the cells were harvested and whole cell extracts were prepared for Western blot analysis for iNOS and COX-2. The relative protein expressions are presented as mean±SEM for four replicates. *p<0.05 compared to the LPS-treated group.

RAW264.7 macrophages = assay: M-CSF/RANKL-induced osteoclast formation; type: cell-based, Mouse; conditions: 5 nM MPT0G009 or 50 nM SAHA; M-CSF/RANKL 50 ng/mL, 5 days
Method: Cells were then tartrate resistant acid phosphatase (TRAP) stained, and the numbers of TRAP-positive multinuclear cells were counted. […] Images are at ×100 magnification, and the arrows indicate differentiated osteoclasts. (FIG. 6C) RAW264.7 cells were treated as in (FIG. 6B), then incubated with a fluorescein isothiocyanate (FITC)-conjugated anti-CD51/61 antibody and analyzed by flow cytometry. (FIGS. 6D and 6E) RAW264.7 cells (1×10^5) were transfected with 1 μg of pGL4.32[luc2P/NF-κB-RE/Hygro] (FIG. 6D) or pGL4.30[luc2P/NFAT-RE/Hygro] (FIG. 6E) for 24 h and then incubated for 30 min with or without MPT0G009 (5 nM). Then RANKL (50 ng/mL) was added and incubation was continued for an additional 24 h, after which luciferase activity was determined. Results in (FIGS. 6A, 6D, and 6E) are the means±SEM's for three independent experiments. **p<0.01 compared with the indicated controls.
Bone destruction is one characteristic of RA pathogenesis, resulting in joint dysfunction. Differentiation of mouse macrophages osteoclast-like cells can be induced in the presence of M-CSF and RANKL, which has been used as a model to investigate osteoclast differentiation. […] Subsequently, multinucleate tartrate resistant acid phosphatase (TRAP)-positive cells were counted.

RA-FLS [8] = assay: cell cycle distribution by flow cytometry (propidium iodide); type: cell-based; conditions: 24 h
From the text: as §2

cyclooxygenase-2 (COX-2) = assay: LPS-induced COX-2 protein expression, Western blot, RAW264.7; type: cell-based, Mouse; conditions: RAW264.7, 0.1-10 μM, LPS 25 ng/mL 24 h
Method: as §3

prostaglandin E2 (PGE2) [9] = assay: LPS-induced PGE2 production by RA-FLS; type: cell-based; conditions: MPT0G009 0.1, 1, 10 μM; SAHA 0.3, 3, 30 μM; LPS 25 ng/mL 24 h
Method: as §2, §1

[10] = MPT0G009 0.1, 1, 10 μM, SAHA 0.3, 3, 30 μM, LPS 25 ng/mL 24 h

SMILES: O=C(/C=C/c1ccc2c(ccn2S(=O)(=O)c2ccccc2)c1)NO [Compound 6]
IC50 (prostaglandin E2 (PGE2) [1]): 5130 ± 480 nM | IC50 (interleukin-6 (IL-6)): 170 nM | IC50 [2]: 3730 ± 260 nM | IC50 (nitric oxide (NO)): > 10 µM

SMILES: COc1cccc(S(=O)(=O)N2CCc3cc(C=CC(=O)NO)ccc32)c1 [Compound 8, 3-[1-(3-Methoxybenzenesulfonyl)-2,3-dihydro-1H-indol-5-yl]-N-hydroxyacrylamide]
IC50 (prostaglandin E2 (PGE2) [1]): 1360 ± 290 nM | IC50 (interleukin-6 (IL-6)): 20 nM | melting point: 156 to 157 °C | IC50 [2]: 1090 ± 120 nM | IC50 (nitric oxide (NO)): 7.35 ± 0.83 µM

SMILES: COc1ccc(S(=O)(=O)N2CCc3cc(C=CC(=O)NO)ccc32)cc1OC [Compound 10, 3-[1-(3,4-Dimethoxybenzenesulfonyl)-2,3-dihydro-1H-indol-5-yl]-N-hydroxyacrylamide]
IC50 (prostaglandin E2 (PGE2) [1]): 1900 ± 210 nM | IC50 (interleukin-6 (IL-6)): 10 nM | melting point: 192 to 193 °C | IC50 [2]: 620 ± 120 nM | IC50 (nitric oxide (NO)): 7.31 ± 0.66 µM

SMILES: O=C(C=Cc1ccc2c(c1)CCN2S(=O)(=O)c1ccc([N+](=O)[O-])cc1)NO [Compound 13, 3-[1-(4-Nitrobenzenesulfonyl)-2,3-dihydro-1H-indol-5-yl]-N-Hydroxyacrylamide]
IC50 (prostaglandin E2 (PGE2) [1]): 1760 ± 260 nM | IC50 (interleukin-6 (IL-6)): 20 nM | melting point: 163 to 165 °C | IC50 [2]: 1370 ± 180 nM | IC50 (nitric oxide (NO)): 3.11 ± 0.37 µM

SMILES: COc1ccc2c(c1)c(CC(=O)O)c(C)n2C(=O)c1ccc(Cl)cc1 [Indomethacin, reference compound]
serum levels of IL-1β [3]: significant decreases | serum levels of IL-6 [3]: significant decreases | carrageenan-induced hind paw edema [4]: suppressed

SMILES: O=C(CCCCCCC(=O)Nc1ccccc1)NO [SAHA, Suberanilohydroxamic Acid, reference compound]
proliferation of RA-FLS (RA-FLS [5]): concentration-dependent anti-proliferative effects | proliferation of HIG-82 synoviocytes (HIG-82 synoviocytes): concentration-dependent anti-proliferative effects | IL-6 production by RA-FLS (IL-6): inhibited | serum levels of IL-1β [3]: significant decreases | serum levels of IL-6 [3]: significant decreases | levels of HDAC3 in RA-FLS (HDAC3): no effect | PGE2 production by RAW264.7 cells (prostaglandin E2 (PGE2) [1]; [10]): inhibited | expression of p21 (p21): significantly increased | AUC(0-inf) ([6]; iv 2 mg/kg): 278 ng·h/mL | CL ([6]; iv 2 mg/kg): 8.04 L/h/kg | T1/2 ([6]; iv 2 mg/kg): 38.4 min | Vd ([6]; iv 2 mg/kg): 3.92 L/kg | AUC(0-inf) ([6]; po 5 mg/kg): 49.40 ng·h/mL | Cmax ([6]; po 5 mg/kg): 83.90 ng/mL | F ([6]; po 5 mg/kg): 6.9% | T1/2 ([6]; po 5 mg/kg): 67.8 min | Tmax ([6]; po 5 mg/kg): 10.2 min | iNOS protein expression [7]: significantly inhibited | iNOS protein expression ([7]; listed as SAHA (1)): concentration-dependently inhibitory effects | expression of osteoclast-specific marker CD51/61 (RAW264.7 macrophages): no effect | formation of M-CSF/RANKL-induced TRAP-positive cells (RAW264.7 macrophages): no effect | subG1 peak (cellular apoptosis) (RA-FLS [8]; MPT0G009 1-1000 nM, SAHA 3-3000 nM): did not increase the subG1 peak | G0/G1 phase arrest (RA-FLS [8]; all concentrations of both agents): G0/G1 phase arrest was observed | COX-2 protein expression (cyclooxygenase-2 (COX-2)): significantly inhibited | COX-2 protein expression (cyclooxygenase-2 (COX-2); listed as SAHA (1)): concentration-dependently inhibitory effects | PGE2 production by RA-FLS (prostaglandin E2 (PGE2) [9]): inhibited | NO production by RAW264.7 cells (nitric oxide (NO); [10]): inhibited | paw thickness reduced compared to control ([4]; SAHA 200 mg/kg oral, 3 h after carrageenan): 15.7% | carrageenan-induced hind paw edema [4]: significantly inhibited | carrageenan-induced hind paw edema ([4]; listed as SAHA (1)): suppress

Continued, in another order:

IC50 (prostaglandin E2 (PGE2) [1]): 1680 ± 270 nM | IC50 (interleukin-6 (IL-6)): 20 nM | IC50 (nitric oxide (NO)): 4.64 ± 0.12 µM
SMILES: O=C(C=Cc1ccc2c(c1)CCN2S(=O)(=O)c1ccccc1)NO [Compound 7, 3-(1-Benzenesulfonyl-2,3-dihydro-1H-indol-5-yl)-N-hydroxyacrylamide]
IC50 [2]: 990 ± 70 nM

IC50 (prostaglandin E2 (PGE2) [1]): 1310 ± 160 nM | IC50 (interleukin-6 (IL-6)): 30 nM | melting point: 129 to 131 °C | IC50 (nitric oxide (NO)): 4.41 ± 0.31 µM
SMILES: O=C(C=Cc1ccc2c(c1)CCN2S(=O)(=O)c1ccc(F)cc1)NO [Compound 11, 3-[1-(4-Fluorobenzenesulfonyl)-2,3-dihydro-1H-indol-5-yl]-N-hydroxyacrylamide]
IC50 [2]: 1040 ± 250 nM

IC50 (prostaglandin E2 (PGE2) [1]): 1040 ± 150 nM | IC50 (interleukin-6 (IL-6)): 20 nM | melting point: 159 to 160 °C | IC50 (nitric oxide (NO)): 5.49 ± 0.48 µM
SMILES: O=C(C=Cc1ccc2c(c1)CCN2S(=O)(=O)c1ccc(Cl)cc1)NO [Compound 12, 3-[1-(4-Chlorobenzenesulfonyl)-2,3-dihydro-1H-indol-5-yl]-N-hydroxyacrylamide]
IC50 [2]: 1010 ± 110 nM

IC50 (prostaglandin E2 (PGE2) [1]): > 10000 nM | IC50 (interleukin-6 (IL-6)): > 10000 nM | melting point: 97 to 99 °C | IC50 (nitric oxide (NO)): > 10 µM
SMILES: Nc1ccc(S(=O)(=O)N2CCc3cc(C=CC(=O)NO)ccc32)cc1 [Compound 14, 3-[1-(4-Aminobenzenesulfonyl)-2,3-dihydro-1H-indol-5-yl]-N-hydroxyacrylamide]
IC50 [2]: > 10000 nM

IC50 (prostaglandin E2 (PGE2) [1]): 2700 ± 430 nM | IC50 (interleukin-6 (IL-6)): 90 nM | melting point: 142 to 143 °C | IC50 (nitric oxide (NO)): > 10 µM
SMILES: CN(C)c1cccc2c(S(=O)(=O)N3CCc4cc(C=CC(=O)NO)ccc43)cccc12 [Compound 15, 3-[1-(5-Dimethylaminonaphthalene-1-sulfonyl)-2,3-dihydro-1H-indol-5-yl]-N-hydroxyacrylamide]
IC50 [2]: 2110 ± 280 nM
